Source: patent EP0520336A2, “Aldehyde derivatives and their use as calpain inhibitors” (FUJIREBIO Inc., priority 1991, dated 1992)

Target: a-chymotrypsin (Bos taurus, UniProt P00766)
Assay: Measurement of inhibitory effect on a-chymotrypsin (glutaryl-L-phenylalanine-p-nitroanilide substrate)
Assay type: biochemical
Details: a-chymotrypsin activity, 25 ° C, pH = 7.8
Method: Test Example 3 Measurement of Inhibitory Effect on Protease other than Calpain
(2) Measurement of Inhibitory Effect on a-Chymotrypsin
The inhibitory effect on a-chymotrypsin was measured by a partially modified method of Erlanger, B. F. as described in Ach. Biochem. Biophys. 115, 206-210 (1966). […]
The mixture was preincubated at 25 ° C for 3 minutes. […] The increase of 405 nm absorbance was measured at 25 ° C with time, and the transition rate (a) of the absorbance per min was calculated.
The rate (b) of the absorbance of a blank sample treated similarly without any compound dissolved in combined dimethyl sulfoxide and 10% polyoxyethylene 60 hardened castor oil was measured. The inhibition of a-chymotrypsin activity was calculated in accordance with the formula [(b-a)/b] X 100, and the amount of each compound necessary to inhibit a-chymotrypsin activity by 50% [ICso] was calculated according to the method of Probit.
The inhibitory effect of SUAM-14541, a compound disclosed in Japanese Laid-Open Patent Application 1-121257, on a-chymotrypsin activity was measured for comparison.

IC50: > 100 µM
Compound: CC(C)C[C@H](NC(=O)OCc1ccccc1)C(=O)N[C@H](C=O)COCc1ccsc1 [Compound No. 3-6, L-N-benzyloxycarbonylleucine-(2S)-[1-formyl-2-(thiophene-3-ylmethyl)oxy]ethylamide]
